Test results from US10363247B2, “(S,E)-3-(6-aminopyridin-3-yl)-N-((5-(4-(3-fluoro-3-methylpyrrolidine-1-carbonyl)phenyl-7-(4-fluorophenyl)benzofuran-2-yl)methyl)acrylamide for the treatment of cancer” (Karyopharm Therapeutics Inc., priority 2015, dated 2019).

How the values were obtained:
MS751 cells = assay: MTT cell proliferation assay, MS751 cells; type: cell-based, human; settings: approximately 64-72 hours incubation
Protocol: (§1) The MTT cell proliferation assay was used to study the cytotoxic properties of the compounds. The assay was performed according to the method described by Roche Molecular Biochemicals, with minor modifications. The assay is based on the cleavage of the tetrazolium salt, MTT, in the presence of an electron-coupling reagent. The water-insoluble formazan salt produced must be solubilized in an additional step. Cells grown in a 96-well tissue culture plate were incubated with the MTT solution for approximately 4 hours. After this incubation period, a water-insoluble formazan dye formed. After solubilization, the formazan dye was quantitated using a scanning multi-well spectrophotometer (ELISA reader). […] The cells were seeded at 5,000-10,000 cells in each well of 96-well plate in 100 μL of fresh culture medium and were allowed to attach overnight. The stock solutions of the compounds were diluted in 100 μL cell culture medium to obtain eight concentrations of each test compound, ranging from 1 nM to 30 μM. […] All optical densities were measured at 490 nm using a Vmax Kinetic Microplate Reader (Molecular Devices). In most cases, the assay was performed in duplicate and the results were presented as a mean percent inhibition to the negative control±SE. The following formula was used to calculate the percent of inhibition: Inhibition (%)=(1-(ODo/OD))×100.
(§2) The compounds were tested against MS751, Z138 and 3T3 cells. The MS751 cell line is derived from a metastasis to lymph node of human cervix from a patient diagnosed with squameous cell carcinoma of the cervix. The Z138 cell line is a mature B-cell acute lymphoblastic leukemia cell line derived from a patient with chronic lymphocytic leukemia. 3T3 cells are standard fibroblast cells; they were originally isolated from Swiss mouse embryo tissue.

Z138 cells = assay: MTT cell proliferation assay, Z138 cells; type: cell-based, human; settings: approximately 64-72 hours incubation
Protocol: as §1, §2

3T3 cells = assay: MTT cell proliferation assay, 3T3 cells; type: cell-based, mouse
Protocol: as §1, §2

Plasma protein binding = type: in vitro ADME; settings: human plasma
[1] = tested on: Molt-4 T-ALL cancer xenograft; NCI-H520 lung cancer xenograft; assay: Xenograft models in mice (Molt-4 T-ALL in SCID mice; NCI-H520 lung cancer in nu/nu mice); type: in vivo, mouse; settings: Molt-4 xenograft 10 and 20 mg/kg PO BID; H520 xenograft 100 mg/kg PO BID
Protocol: In this study, the impact of the compound of Example 2 on tumor growth was tested using the Molt-4 T-ALL cancer xenograft model in SCID mice. MOLT 4 (CRL-1582) acute lymphoblastic leukemia cells were obtained from ATCC. These cells were grown in RPMI-1640 medium supplemented with 10% fetal bovine serum, 1% penicillin and streptomycin. Cells were sub-cultured by transferring floating cells to a new flask and trypsinizing adherent cells before subculturing at a ratio of 1:4. Molt-4 cells were harvested by centrifugation and counted using a hemocytometer. Cells were resuspended in PBS at a 5×10^7 cells per mL. Cells were placed on ice and mixed with an equal volume of Matrigel (BD Biosciences CB-40234). This mixture was kept on ice and injected into the left flank of mice in a volume of […], equivalent to 5×10^6 cells per mouse. Twenty-four (24) CB-17 SCID mice were inoculated subcutaneously in the left flank Molt-4 cells. Treatment was initiated when the tumors reached a mean volume of ˜135 mm^3. […] Animal weights and conditions were recorded daily, and tumors were measured on Mondays, Wednesdays and Fridays.
In this study, the impact of the compound of Example 2 on tumor growth was tested using the NCI-H520 lung cancer xenograft model in nu/nu mice. […] Animal weights and conditions were recorded daily, and tumors were measured on Mondays, Wednesdays and Fridays.

[2] = Homo sapiens, MS751, MS751 cells
[3] = Homo sapiens, Z-138, Z138 cells
[4] = Mus musculus, NIH3T3, approximately 64-72 hours incubation
[5] = approximately 64-72 hours incubation

Structure (SMILES)	IC50 (MS751 cells; [2]) [µM]	IC50 (Z138 cells; [3]) [µM]	IC50 (3T3 cells; [4]) [µM]	Fraction of Bound (Plasma protein binding) [%]	efficacy in vivo (tumor growth) [1]	IC50 (MS751 cells; MS751 cells) [µM]	IC50 (Z138 cells; Z138 cells) [µM]	IC50 (3T3 cells; [5]) [µM]
C[C@]1(F)CCN(C(=O)c2ccc(-c3cc(-c4ccc(F)cc4)c4oc(CNC(=O)/C=C/c5ccc(N)nc5)cc4c3)cc2)C1 [Example 2, (S,E)-3-(6-aminopyridin-3-yl)-N-((5-(4-(3-fluoro-3-methylpyrrolidine-1-carbonyl)phenyl)-7-(4-fluorophenyl)benzofuran-2-yl)methyl)acrylamide]	0.008	< 0.005	1.18	95.2	demonstrated efficacy in vivo			
C[C@@]1(F)CCN(C(=O)c2ccc(-c3cc(-c4ccc(F)cc4)c4oc(CNC(=O)/C=C/c5ccc(N)nc5)cc4c3)cc2)C1 [Example 3, (R,E)-3-(6-aminopyridin-3-yl)-N-((5-(4-(3-fluoro-3-methylpyrrolidine-1-carbonyl)phenyl)-7-(4-fluorophenyl)benzofuran-2-yl)methyl)acrylamide]	0.09	0.02	> 10					
CC1(F)CCN(C(=O)c2ccc(-c3cc(C(F)(F)F)c4oc(CNC(=O)/C=C/c5ccc(N)nc5)cc4c3)cc2)C1 (single isomer, unassigned) [Example X-2, (E)-3-(6-aminopyridin-3-yl)-N-((5-(4-(3-fluoro-3-methylpyrrolidine-1-carbonyl)phenyl)-7-(trifluoromethyl)benzofuran-2-yl)methyl)acrylamide]						0.52	0.24	> 10
CC1(F)CCN(C(=O)c2ccc(-c3cc(-c4ccc(F)cc4)c4oc(CNC(=O)/C=C/c5ccc(N)nc5)cc4c3)cc2)C1 (racemic) [Example 1, (±)-(E)-3-(6-aminopyridin-3-yl)-N-((5-(4-(3-fluoro-3-methylpyrrolidine-1-carbonyl)phenyl)-7-(4-fluorophenyl)benzofuran-2-yl)methyl)acrylamide]	0.03	< 0.005	1.26					
CC1(F)CCN(C(=O)c2ccc(-c3cc(C(F)(F)F)c4oc(CNC(=O)/C=C/c5ccc(N)nc5)cc4c3)cc2)C1 (single isomer, unassigned) [Example X-4, (E)-3-(6-aminopyridin-3-yl)-N-((5-(4-(3-fluoro-3-methylpyrrolidine-1-carbonyl)phenyl)-7-(trifluoromethyl)benzofuran-2-yl)methyl)acrylamide]						2.1	1.5	> 10
Nc1ccc(/C=C/C(=O)NCc2cc3cc(-c4ccc(C(=O)N5CCC(F)(F)CC5)cc4)cc(-c4ccc(F)cc4)c3o2)cn1 [Example X-1, (E)-3-(6-aminopyridin-3-yl)-N-((5-(4-(4,4-difluoropiperidine-1-carbonyl)phenyl)-7-(4-fluorophenyl)benzofuran-2-yl)methyl)acrylamide]	0.05	0.018	3.6	100				
CC1(F)CCN(C(=O)c2ccc(-c3cc(C(F)(F)F)c4oc(CNC(=O)/C=C/c5ccc(N)nc5)cc4c3)cc2)C1 (single isomer, unassigned) [Example X-3, (E)-3-(6-aminopyridin-3-yl)-N-((5-(4-(3-fluoro-3-methylpyrrolidine-1-carbonyl)phenyl)-7-(trifluoromethyl)benzofuran-2-yl)methyl)acrylamide]			> 10			0.4	0.4	
